Experimental data from patent publication US9062078B2, “Substituted 7-azabicyles and their use as orexin receptor modulators” (priority 2013, dated 2015).
Read-outs that look alike come from different tables or passages of the source.

Key:
human orexin 1 receptor = human orexin 1 receptor (Homo sapiens (Human), UniProt O43613); assay: Human orexin 1 receptor radioligand binding (competitive, [3H]-SB674042, CHO cell preparations)
human orexin 2 receptor = human orexin 2 receptor (Homo sapiens (Human), UniProt O43614); assay: Human orexin 2 receptor radioligand binding (competitive, [3H]-EMPA, HEK293 cell preparations)
Sequence of human orexin 2 receptor (O43614 whole entry): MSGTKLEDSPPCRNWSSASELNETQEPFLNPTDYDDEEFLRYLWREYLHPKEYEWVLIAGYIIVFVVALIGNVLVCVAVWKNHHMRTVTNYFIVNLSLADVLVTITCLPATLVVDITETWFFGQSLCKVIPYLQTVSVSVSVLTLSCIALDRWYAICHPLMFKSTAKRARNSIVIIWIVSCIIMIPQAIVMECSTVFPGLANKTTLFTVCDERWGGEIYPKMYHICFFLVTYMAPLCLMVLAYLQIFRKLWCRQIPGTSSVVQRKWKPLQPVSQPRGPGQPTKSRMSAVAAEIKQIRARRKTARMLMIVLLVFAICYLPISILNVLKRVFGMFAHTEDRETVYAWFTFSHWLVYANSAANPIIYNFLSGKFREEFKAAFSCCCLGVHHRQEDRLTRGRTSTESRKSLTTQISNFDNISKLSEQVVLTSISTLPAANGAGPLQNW

[1] = human orexin 2 receptor, [3H]-EMPA competition binding, read-out: hOX2 Ki (nm)
[2] = human orexin 1 receptor, [3H]-SB674042 competition binding, read-out: hOX1 Ki (nm)

Sequence of human orexin 1 receptor (O43613 whole entry): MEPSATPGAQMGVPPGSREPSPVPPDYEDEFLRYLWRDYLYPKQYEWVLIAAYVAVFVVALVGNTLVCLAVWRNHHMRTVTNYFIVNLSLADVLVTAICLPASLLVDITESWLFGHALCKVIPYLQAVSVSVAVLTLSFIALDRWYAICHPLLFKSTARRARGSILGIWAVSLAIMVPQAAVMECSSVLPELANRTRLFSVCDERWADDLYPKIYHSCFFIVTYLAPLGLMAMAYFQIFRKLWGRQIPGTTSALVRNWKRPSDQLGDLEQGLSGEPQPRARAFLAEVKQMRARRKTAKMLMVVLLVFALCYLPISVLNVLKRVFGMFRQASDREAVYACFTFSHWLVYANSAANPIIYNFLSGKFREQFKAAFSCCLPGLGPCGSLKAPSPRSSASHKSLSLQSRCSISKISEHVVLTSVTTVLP

SMILES | Ki (human orexin 1 receptor; hOX1 Ki (nm)) | Ki (human orexin 2 receptor; [1]) | Ki (human orexin 1 receptor; [2]) | Ki (human orexin 2 receptor; hOX2 Ki (nm))
Cc1ccc(-n2nccn2)c(C(=O)N2C3CCC2C(COc2ncccc2C(F)(F)F)C3)c1 (racemic) [Example 15, (±)-(5-methyl-2-(2H-1,2,3-triazol-2-yl)phenyl)(2-(((3-(trifluoromethyl)pyridin-2-yl)oxy)methyl)-7-azabicyclo[2.2.1]heptan-7-yl)methanone] | 56 nM | 120 nM | – | –
Cc1ccc(-n2nccn2)c(C(=O)N2C3CCC2C(COc2cccc(C(F)(F)F)n2)C3)c1 (racemic) [Example 16, (±)-(5-methyl-2-(2H-1,2,3-triazol-2-yl)phenyl)(2-(((6-(trifluoromethyl)pyridin-2-yl)oxy)methyl)-7-azabicyclo[2.2.1]heptan-7-yl)methanone] | – | 42 nM | 20 nM | –
Cc1ccnc(OCC2CC3CCC2N3C(=O)c2cc(C)ccc2-n2nccn2)c1 (racemic) [Example 17, (±)-(5-methyl-2-(2H-1,2,3-triazol-2-yl)phenyl)(2-(((4-methylpyridin-2-yl)oxy)methyl)-7-azabicyclo[2.2.1]heptan-7-yl)methanone] | – | 69 nM | 41 nM | –
Cc1ccc(-n2nccn2)c(C(=O)N2C3CCC2C(COc2cccc(C)n2)C3)c1 (racemic) [Example 18, (±)-(5-methyl-2-(2H-1,2,3-triazol-2-yl)phenyl)(2-(((6-methylpyridin-2-yl)oxy)methyl)-7-azabicyclo[2.2.1]heptan-7-yl)methanone] | – | 44 nM | 12 nM | –
Cc1ccc(OCC2CC3CCC2N3C(=O)c2cc(C)ccc2-n2nccn2)nc1 (racemic) [Example 19, (±)-(5-methyl-2-(2H-1,2,3-triazol-2-yl)phenyl)(2-(((5-methylpyridin-2-yl)oxy)methyl)-7-azabicyclo[2.2.1]heptan-7-yl)methanone] | – | 44 nM | 12 nM | –
Cc1ccc(-n2nccn2)c(C(=O)N2C3CCC2C(COc2nc(C)cnc2C)C3)c1 (racemic) [Example 20, (±)-(2-(((3,6-dimethylpyrazin-2-yl)oxy)methyl)-7-azabicyclo[2.2.1]heptan-7-yl)(5-methyl-2-(2H-1,2,3-triazol-2-yl)phenyl)methanone] | – | 364 nM | 270 nM | –
Cc1ccc(-n2nccn2)c(C(=O)N2C3CCC2C(COc2nc4ccccc4nc2C(F)(F)F)C3)c1 (racemic) [Example 21, (±)-(5-methyl-2-(2H-1,2,3-triazol-2-yl)phenyl)(2-(((3-(trifluoromethyl)quinoxalin-2-yl)oxy)methyl)-7-azabicyclo[2.2.1]heptan-7-yl)methanone] | 300 nM | 487 nM | – | –
O=C(c1ccccc1-n1nccn1)N1C2CCC1C(COc1ccc(F)cn1)C2 (racemic) [Example 22, (±)-(2-(2H-1,2,3-triazol-2-yl)phenyl)(2-(((5-fluoropyridin-2-yl)oxy)methyl)-7-azabicyclo[2.2.1]heptan-7-yl)methanone] | – | 50 nM | 47 nM | –
O=C(c1cccc2cccnc12)N1C2CCC1C(COc1ccc(F)cn1)C2 (racemic) [Example 23, (±)-2-(((5-fluoropyridin-2-yl)oxy)methyl)-7-azabicyclo[2.2.1]heptan-7-yl)(quinolin-8-yl)methanone] | – | 1500 nM | 322 nM | –
O=C(c1cccc2ccccc12)N1C2CCC1C(COc1ccc(F)cn1)C2 (racemic) [Example 24, (±)-2-(((5-fluoropyridin-2-yl)oxy)methyl)-7-azabicyclo[2.2.1]heptan-7-yl)(naphthalen-1-yl)methanone] | – | 164 nM | 122 nM | –
Cc1ccc2ccccc2c1C(=O)N1C2CCC1C(COc1ccc(F)cn1)C2 (racemic) [Example 25, (±)-2-(((5-fluoropyridin-2-yl)oxy)methyl)-7-azabicyclo[2.2.1]heptan-7-yl)(2-methylnaphthalen-1-yl)methanone] | 74 nM | – | – | 160 nM
O=C(c1ccccc1-n1cccn1)N1C2CCC1C(COc1ccc(F)cn1)C2 (racemic) [Example 26, (±)-2-(1H-pyrazol-1-yl)phenyl)(2-(((5-fluoropyridin-2-yl)oxy)methyl)-7-azabicyclo[2.2.1]heptan-7-yl)methanone] | – | 394 nM | 117 nM | –
O=C(c1occc1-c1ccccc1)N1C2CCC1C(COc1ccc(F)cn1)C2 (racemic) [Example 27, (±)-2-(((5-fluoropyridin-2-yl)oxy)methyl)-7-azabicyclo[2.2.1]heptan-7-yl)(3-phenylfuran-2-yl)methanone] | – | – | 677 nM | 380 nM
CCOc1ccc2ccccc2c1C(=O)N1C2CCC1C(COc1ccc(F)cn1)C2 (racemic) [Example 28, (±)-(2-ethoxynaphthalen-1-yl)(2-(((5-fluoropyridin-2-yl)oxy)methyl)-7-azabicyclo[2.2.1]heptan-7-yl)methanone] | – | 11 nM | 14 nM | –
Cc1nc(C(=O)N2C3CCC2C(COc2ccc(F)cn2)C3)c(-c2ccccc2F)s1 (racemic) [Example 29, (±)-(5-(2-fluorophenyl)-2-methylthiazol-4-yl)(2-(((5-fluoropyridin-2-yl)oxy)methyl)-7-azabicyclo[2.2.1]heptan-7-yl)methanone] | – | 60 nM | 11 nM | –
O=C(c1cc(F)ccc1-n1nccn1)N1C2CCC1C(COc1ccc(F)cn1)C2 (racemic) [Example 30, (±)-(5-fluoro-2-(2H-1,2,3-triazol-2-yl)phenyl)(2-(((5-fluoropyridin-2-yl)oxy)methyl)-7-azabicyclo[2.2.1]heptan-7-yl)methanone] | – | 149 nM | 47 nM | –
O=C(c1c(F)cccc1-c1ncccn1)N1C2CCC1C(COc1ccc(F)cn1)C2 (racemic) [Example 31, (±)-(2-fluoro-6-(pyrimidin-2-yl)phenyl)(2-(((5-fluoropyridin-2-yl)oxy)methyl)-7-azabicyclo[2.2.1]heptan-7-yl)methanone] | – | 122 nM | 33 nM | –
O=C(c1cc(F)ccc1-c1ncccn1)N1C2CCC1C(COc1ccc(F)cn1)C2 (racemic) [Example 32, (±)-(5-fluoro-2-(pyrimidin-2-yl)phenyl)(2-(((5-fluoropyridin-2-yl)oxy)methyl)-7-azabicyclo[2.2.1]heptan-7-yl)methanone] | 21 nM | 123 nM | – | –
O=C(c1ccccc1-n1nccn1)N1C2CCC1C(COc1cnc3ccccc3n1)C2 (racemic) [Example 34, (±)-(2-(2H-1,2,3-triazol-2-yl)phenyl)(2-((quinoxalin-2-yloxy)methyl)-7-azabicyclo[2.2.1]heptan-7-yl)methanone] | – | 467 nM | 60 nM | –
Cc1ccc(-n2nccn2)c(C(=O)N2C3CCC2C(COc2cnc4ccccc4n2)C3)c1 (racemic) [Example 36, (±)-(5-methyl-2-(2H-1,2,3-triazol-2-yl)phenyl)(2-((quinoxalin-2-yloxy)methyl)-7-azabicyclo[2.2.1]heptan-7-yl)methanone] | – | 107 nM | 70 nM | –
O=C(c1cc(F)ccc1-n1nccn1)N1C2CCC1C(COc1cnc3ccccc3n1)C2 (racemic) [Example 37, (±)-(5-fluoro-2-(2H-1,2,3-triazol-2-yl)phenyl)(2-((quinoxalin-2-yloxy)methyl)-7-azabicyclo[2.2.1]heptan-7-yl)methanone] | – | 487 nM | 300 nM | –
Cc1ccc(-c2ncccn2)c(C(=O)N2C3CCC2C(COc2cnc4ccccc4n2)C3)c1 (racemic) [Example 38, (±)-(5-methyl-2-(pyrimidin-2-yl)phenyl)(2-((quinoxalin-2-yloxy)methyl)-7-azabicyclo[2.2.1]heptan-7-yl)methanone] | 120 nM | 383 nM | – | –
Cc1ccc(-n2nccn2)c(C(=O)N2C3CCC2C(COc2nc(C)cc(C)n2)C3)c1 (racemic) [Example 39, (±)-(2-(((4,6-dimethylpyrimidin-2-yl)oxy)methyl)-7-azabicyclo[2.2.1]heptan-7-yl)(5-methyl-2-(2H-1,2,3-triazol-2-yl)phenyl)methanone] | 29 nM | 27 nM | – | –
Cc1cc(C)nc(OCC2CC3CCC2N3C(=O)c2c(C)noc2-c2ccccc2)n1 (racemic) [Example 40, (±)-2-(((4,6-dimethylpyrimidin-2-yl)oxy)methyl)-7-azabicyclo[2.2.1]heptan-7-yl)(3-methyl-5-phenylisoxazol-4-yl)methanone] | – | 1200 nM | 5000 nM | –
CCOc1ccc2ccccc2c1C(=O)N1C2CCC1C(COc1nc(C)cc(C)n1)C2 (racemic) [Example 41, (±)-(2-(((4,6-dimethylpyrimidin-2-yl)oxy)methyl)-7-azabicyclo[2.2.1]heptan-7-yl)(2-ethoxynaphthalen-1-yl)methanone] | – | 22 nM | 35 nM | –
Cc1cc(C)nc(OCC2CC3CCC2N3C(=O)c2c(F)cccc2-c2ncccn2)n1 (racemic) [Example 43, (±)-(2-(((4,6-dimethylpyrimidin-2-yl)oxy)methyl)-7-azabicyclo[2.2.1]heptan-7-yl)(2-fluoro-6-(pyrimidin-2-yl)phenyl)methanone] | – | 92 nM | 222 nM | –
Cc1cc(C)nc(OCC2CC3CCC2N3C(=O)c2cc(F)ccc2-c2ncccn2)n1 (racemic) [Example 44, (±)-(2-(((4,6-dimethylpyrimidin-2-yl)oxy)methyl)-7-azabicyclo[2.2.1]heptan-7-yl)(5-fluoro-2-(pyrimidin-2-yl)phenyl)methanone] | 400 nM | 104 nM | – | –
Cc1ccc(-c2ncccn2)c(C(=O)N2C3CCC2C(COc2nc(C)cc(C)n2)C3)c1 (racemic) [Example 45, (±)-(2-(((4,6-dimethylpyrimidin-2-yl)oxy)methyl)-7-azabicyclo[2.2.1]heptan-7-yl)(5-methyl-2-(pyrimidin-2-yl)phenyl)methanone] | – | 59 nM | 79 nM | –
Cc1cc(C)nc(OCC2CC3CCC2N3C(=O)c2ccccc2-c2cccs2)n1 (racemic) [Example 46, (±)-(2-(((4,6-dimethylpyrimidin-2-yl)oxy)methyl)-7-azabicyclo[2.2.1]heptan-7-yl)(2-(thiophen-2-yl)phenyl)methanone] | – | 10 nM | 82 nM | –
